The target of one data set is T1, human A1 receptor (Homo sapiens, UniProt P30542).
T1 construct: expressed in transfected cells; host or cells: CHO
T1 sequence (P30542 1-326): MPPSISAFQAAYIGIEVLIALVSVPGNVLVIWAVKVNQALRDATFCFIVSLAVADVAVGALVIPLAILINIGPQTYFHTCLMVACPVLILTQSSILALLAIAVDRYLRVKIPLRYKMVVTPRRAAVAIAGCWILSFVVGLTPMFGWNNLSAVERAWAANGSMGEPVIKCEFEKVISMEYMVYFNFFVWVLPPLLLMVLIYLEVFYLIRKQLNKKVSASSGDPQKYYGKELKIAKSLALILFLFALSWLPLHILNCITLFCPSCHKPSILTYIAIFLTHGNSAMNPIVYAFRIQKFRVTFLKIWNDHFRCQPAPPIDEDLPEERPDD
The data set can be described thus: functional cAMP (HTRF) assay, recombinant CHO cells expressing human A1 receptor, forskolin, agonist CPA. In kind it is cell-based. The procedure, abridged:
(§1)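 Recombinant CHO lines carrying either receptor receive forskolin, compound and the matching agonist, CPA or IB-MECA. After 30 min, HTRF reagents are added and cAMP is quantified. Values are normalized to inhibitor and neutral DMSO controls, then fitted.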
Background: In TR-FRET formats the signal depends on donor and acceptor labels being close together.

The target in a further data set is T2, human A3 receptor (Homo sapiens, UniProt P0DMS8).
T2 construct: expressed in transfected cells; host or cells: CHO
T2 sequence (P0DMS8 1-318): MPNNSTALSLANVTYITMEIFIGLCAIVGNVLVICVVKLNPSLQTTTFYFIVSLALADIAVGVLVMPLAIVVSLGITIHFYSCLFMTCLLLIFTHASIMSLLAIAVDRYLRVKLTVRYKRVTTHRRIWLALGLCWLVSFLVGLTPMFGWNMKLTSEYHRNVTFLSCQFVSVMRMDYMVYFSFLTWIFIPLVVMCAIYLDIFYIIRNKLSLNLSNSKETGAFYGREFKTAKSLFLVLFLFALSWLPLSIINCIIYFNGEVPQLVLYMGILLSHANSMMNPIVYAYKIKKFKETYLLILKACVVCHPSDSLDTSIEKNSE
The data set can be described thus: functional cAMP (HTRF) assay, recombinant CHO cells expressing human A3 receptor, forskolin, agonist IB-MECA. In kind it is cell-based. The procedure, abridged:
as §1

The nature of data set [1]: pharmacokinetic properties in mouse after single intravenous and oral administration. In kind it is in vivo. To be noted: PK data in mouse; for clearance / half-life / Cmax / Vd: female, plasma, 0.2 mg/kg; for Cmax: dose-normalized to 1 mg/kg; for Vd: read-out: Vss. From the text:
The objective of the study was to obtain information on the pharmacokinetic properties of the compounds of the present invention in female Wistar rats/mice following single intravenous and oral administration.
Female Wistar rats/mice (n=6) received either a single intravenous (bolus) injection or an oral administration (by gavage) of the tested compound.
The concentrations of the compounds in plasma, feces were quantified using an UPLC method with tandem mass spectrometric detection (LC-MS/MS) previously developed at the ‘Institute of Drug Metabolism and Pharmacokinetics’. The LC-MS/MS system consisted of a Waters Acquity UPLC coupled to an AB Sciex mass spectrometer API 5500 Q-trap. […] The detection of the compounds was performed using multiple reaction monitoring in the positive ionization mode. Plasma samples were spiked with internal standard (20 μl) and the analyte was extracted from the matrix using tertiary-butyl methyl ether (tBME). The organic phase was evaporated to dryness under a stream of nitrogen. The residue was dissolved in acetonitrile/0.1% formic acid for LC-MS/MS analysis. Feces samples were homogenized with 4-times their volume of an ethanol/water mixture (4:1, v/v). Aliquots of the aqueous-ethanolic extracts were spiked with internal standard, diluted with acetonitrile/water (1:1, v/v) and directly injected into the LC-MS/MS system.
Pharmacokinetic parameters Cmax and tmax were taken from the observed data. […] AUC values were calculated by non-compartmental analysis using the linear up/log down method. Numerical data for mean plasma concentrations and derived pharmacokinetic parameters were rounded to 3 significant digits for presentation.

The next data set deals with T3, human A2A receptor (Homo sapiens, UniProt P29274).
T3 construct: expressed in transfected cells; host or cells: HEK293
T3 sequence (P29274 whole entry): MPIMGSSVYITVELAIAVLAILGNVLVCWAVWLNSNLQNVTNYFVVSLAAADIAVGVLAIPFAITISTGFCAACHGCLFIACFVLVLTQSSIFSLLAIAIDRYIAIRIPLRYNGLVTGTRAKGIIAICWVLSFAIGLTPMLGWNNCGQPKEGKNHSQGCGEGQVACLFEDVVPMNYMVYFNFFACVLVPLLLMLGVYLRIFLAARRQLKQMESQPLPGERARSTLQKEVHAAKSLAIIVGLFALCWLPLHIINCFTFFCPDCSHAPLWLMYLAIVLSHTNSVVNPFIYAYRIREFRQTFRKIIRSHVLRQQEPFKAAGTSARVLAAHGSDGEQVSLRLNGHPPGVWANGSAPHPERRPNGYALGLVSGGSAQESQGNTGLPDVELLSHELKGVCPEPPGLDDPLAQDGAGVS
In words: functional cAMP (HTRF) assay, recombinant HEK293 cells expressing human A2A receptor, agonist NECA. In kind it is cell-based.

The target in a further data set is T4, A2B receptors (Homo sapiens, UniProt P29275).
T4 sequence (P29275 1-332): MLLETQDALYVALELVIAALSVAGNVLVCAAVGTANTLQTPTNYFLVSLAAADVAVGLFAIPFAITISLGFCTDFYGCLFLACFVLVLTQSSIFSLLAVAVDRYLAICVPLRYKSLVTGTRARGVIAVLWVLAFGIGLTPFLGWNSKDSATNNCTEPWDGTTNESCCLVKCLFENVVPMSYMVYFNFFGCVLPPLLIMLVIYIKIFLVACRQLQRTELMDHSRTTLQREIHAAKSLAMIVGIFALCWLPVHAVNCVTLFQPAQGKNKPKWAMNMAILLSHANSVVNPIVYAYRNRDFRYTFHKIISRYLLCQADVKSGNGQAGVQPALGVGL
The data set can be described thus: functional cAMP (HTRF) assay, recombinant HEK293 cells expressing human A2B receptor, agonist NECA. In kind it is cell-based. Further details: expressed in transfected cells; host or cells: HEK293.

Broadly, the IC50 is the concentration needed to halve the response being measured. For orientation: half-life means the time needed for the level to fall by half in the phase considered. Higher therefore signals slow loss. The Cmax is the highest concentration seen after dosing. `COc1ccc(-c2ccccc2)c2nc(NC(=O)N3CCC(C)(O)CC3)[nH]c12` [compound 12, 4-Hydroxy-4-methyl-piperidine-1-carboxylic acid (7-methoxy-4-phenyl-1H-benzoimidazol-2-yl)-amide]: the IC50 at human A1 receptor is below 1 µM. In addition, the IC50 on human A3 receptor is below 1 µM. For the same compound, the Feces iv in data set [1] (@0.2 (dose, unit not given)) was 27@0.2%. Besides, in data set [1], the clearance is 11.4 mL/min/kg, the half-life was 42.6 min, the Cmax came to 1820 ng/mL and the Vd was 0.568 L/kg. On human A2A receptor, the concentration for half-maximal inhibition (IC50) is below 0.01 µM. Further, the concentration for half-maximal inhibition (IC50) at A2B receptors is below 1 µM.

Take `COc1ccc(N2CCOCC2)c2nc(NC(=O)N3CCC(C)(O)CC3)[nH]c12` [compound 21, 4-hydroxy-N-(7-methoxy-4-morpholino-1H-benzimidazol-2-yl)-4-methyl-piperidine-1-carboxamide]: the Feces iv in data set [1] (@0.08 (dose, unit not given)) was 38@0.08%. Further, in data set [1], the clearance was 12.7 mL/min/kg, the half-life is 50.3 min, the Cmax is 2650 ng/mL and the Vd came out at 0.508 L/kg.

In the case of `COc1ccc(-c2cnn(C)c2)c2nc(NC(=O)N3CCC(C)(O)CC3)[nH]c12` [compound 22, 4-Hydroxy-4-methyl-piperidine-1-carboxylic acid [7-methoxy-4-(1-methyl-1H-pyrazol-4-yl)-1H-benzoimidazol-2-yl]-amide], in data set [1] (@0.2 (dose, unit not given)), the Feces iv was 46@0.2%. For the same compound, in data set [1], the clearance was 19.5 mL/min/kg, the half-life is 52 min, the Cmax is 1320 ng/mL and the Vd turned out to be 1.02 L/kg.

With `COc1ccc(N2CCOCC2)c2nc(NC(=O)c3ccnc(N4CCOCC4)c3)[nH]c12` [compound 23, N-(7-Methoxy-4-morpholin-4-yl-1H-benzoimidazol-2-yl)-2-morpholin-4-yl-isonicotinamide], the Feces iv in data set [1] (@0.2 (dose, unit not given)) is 11@0.2%. Besides, in data set [1], the clearance is 10.3 mL/min/kg, the half-life was 103 min, the maximum concentration (Cmax) worked out at 733 ng/mL and the Vd was determined as 1.54 L/kg.

With `COc1ccc(C2CCOCC2)c2nc(NC(=O)c3ccc(Cn4ccnc4)cc3)[nH]c12` [compound 97, 4-[(1H-imidazol-1-yl)methyl]-N-[7-methoxy-4-(oxan-4-yl)-1H-1,3-benzodiazol-2-yl]benzamide], the 50% inhibitory concentration (IC50) at human A1 receptor is above 1 µM. Moreover, on human A3 receptor, the IC50 is above 1 µM. For the same compound, the Feces iv in data set [1] (@0.2 (dose, unit not given)) is 29@0.2%. Further, in data set [1], the clearance is 12.5 mL/min/kg, the half-life was 58 min, the Cmax turned out to be 1050 ng/mL and the Vd is 1.01 L/kg. Also, the concentration for half-maximal inhibition (IC50) on human A2A receptor was below 0.01 µM. The IC50 at A2B receptors was below 0.1 µM.

On to `COc1ccc(-c2cnn(C)c2)c2nc(NC(=O)c3ccnc(N4CC[C@@](C)(O)C4)c3)[nH]c12` [compound 107, 2-[(3R)-3-hydroxy-3-methylpyrrolidin-1-yl]-N-[7-methoxy-4-(1-methyl-1H-pyrazol-4-yl)-1H-1,3-benzodiazol-2-yl]pyridine-4-carboxamide], for which the concentration for half-maximal inhibition (IC50) at human A1 receptor was above 1 µM; on human A3 receptor it was below 1 µM; at human A2A receptor it was below 0.01 µM; on A2B receptors, below 1 µM. In data set [1] (@0.2 (dose, unit not given)), the Feces iv is 34@0.2%. In data set [1], this compound showed a clearance of 31.7 mL/min/kg. Moreover, in data set [1], the half-life was 37.3 min. The highest concentration (Cmax) in data set [1] came to 718 ng/mL. Moreover, the Vd in data set [1] was found to be 1.54 L/kg.

`COc1ccc(-c2cnn(C)c2)c2nc(NC(=O)N3CC[C@]4(CCOC4)C3)[nH]c12` [compound 115, (5S)-N-[7-methoxy-4-(1-methyl-1H-pyrazol-4-yl)-1H-1,3-benzodiazol-2-yl]-2-oxa-7-azaspiro[4.4]nonane-7-carboxamide]: in data set [1] (@0.2 (dose, unit not given)), the Feces iv is on record as 8.6@0.2%. Also, in data set [1], the clearance was 5.4 mL/min/kg, the half-life is 59.3 min, the maximum concentration (Cmax) is 2450 ng/mL and the Vd came out at 0.425 L/kg.

Consider `COc1ccc(-c2cnn(C)c2)c2nc(NC(=O)N3CC[C@@]4(CCOC4)C3)[nH]c12` [compound 116, (5R)-N-[7-methoxy-4-(1-methyl-1H-pyrazol-4-yl)-1H-1,3-benzodiazol-2-yl]-2-oxa-7-azaspiro[4.4]nonane-7-carboxamide], for which, in data set [1] (@0.2 (dose, unit not given)), the Feces iv is given as 16.9@0.2%. For the same compound, in data set [1], the clearance was 12.3 mL/min/kg, the half-life was 58 min, the concentration peaked (Cmax) at 1130 ng/mL and the Vd is 0.917 L/kg.

Regarding `COc1ccc(C2CCOCC2)c2nc(NC(=O)c3ccc(C(=O)N(C)C)cc3)[nH]c12` [compound 133, N4-[7-methoxy-4-(oxan-4-yl)-1H-1,3-benzodiazol-2-yl]-N1,N1-dimethylbenzene-1,4-dicarboxamide], the IC50 at human A1 receptor was above 1 µM. For the same compound, at human A3 receptor, the half-maximal inhibitory concentration (IC50) is above 1 µM. The Feces iv in data set [1] (@0.2 (dose, unit not given)) is reported as 2.5@0.2%. Further, in data set [1], the clearance is 12.7 mL/min/kg, the half-life is 40.1 min, the highest level (Cmax) was 2640 ng/mL and the Vd stood at 0.402 L/kg. In addition, the IC50 on human A2A receptor is below 0.01 µM. For the same compound, the concentration for half-maximal inhibition (IC50) at A2B receptors was below 1 µM.

For `COc1ccc(N2CCOCC2)c2nc(NC(=O)c3cnn(C)c3)[nH]c12` [compound 136, N-[7-methoxy-4-(morpholin-4-yl)-1H-1,3-benzodiazol-2-yl]-1-methyl-1H-pyrazole-4-carboxamide], on human A1 receptor, the IC50 was above 1 µM. Moreover, the half-inhibitory concentration (IC50) on human A3 receptor is above 1 µM. In addition, the Feces iv in data set [1] (@0.2 (dose, unit not given)) is reported as 5.6@0.2%. Further, in data set [1], the clearance was 5.55 mL/min/kg, the half-life was 69 min, the highest level (Cmax) was 2100 ng/mL and the Vd is 0.522 L/kg. For the same compound, the concentration for half-maximal inhibition (IC50) at human A2A receptor is below 0.01 µM. Also, on A2B receptors, the IC50 was above 1 µM.

In the case of `COc1ccc(C2CCOCC2)c2nc(NC(=O)c3ccc(CN4CCCC4=O)cc3)[nH]c12` [compound 138, N-[7-methoxy-4-(oxan-4-yl)-1H-1,3-benzodiazol-2-yl]-4-[(2-oxopyrrolidin-1-yl)methyl]benzamide], the concentration for half-maximal inhibition (IC50) was above 1 µM on human A1 receptor, above 1 µM at human A3 receptor, below 0.01 µM on human A2A receptor and below 1 µM at A2B receptors. The same compound gave a clearance in data set [1] of 28.5 mL/min/kg. The same compound had a half-life in data set [1] of 32.3 min. The same compound came in with a maximum concentration (Cmax) in data set [1] of 1.9 ng/mL. Besides, in data set [1], the Vd turned out to be 1.06 L/kg.

(Values after US11453647B2, “Benzimidazole derivatives as adenosine receptor antagonists” (Merck Patent GmbH, priority 2017, dated 2022).)
